How the values were obtained:
Apolipoprotein L1 = Apolipoprotein L1 (Homo sapiens, UniProt O14791); assay: Inhibition of APOL1 G1 variant in human HEK293-T-REx cells measured by Thallium assay; assay type: cell-based
[1] = tested on: Trypanosoma brucei brucei; assay: Antitrypanosomal activity against Trypanosoma brucei brucei assessed as trypanosome lysis using recombinant APOL1 protein G1 variant and measured by Alamar blue based fluoresence assay; assay type: functional, organism-based

| Structure (SMILES) | IC50 (Apolipoprotein L1) [nM] | IC50 [1] [nM] |
| --- | --- | --- |
| CC(C)CC(NC(=O)[C@H]1C[C@H](c2c(-c3ccc(F)cc3)[nH]c3c(F)cc(F)cc32)C1)C(N)=O (stereo not given in full) | > 1000 | > 1000 |
| O=C1NCCC1NC(=O)[C@H]1C[C@H](c2c(-c3ccc(F)cc3)[nH]c3c(F)cc(F)cc32)C1 (stereo not given in full) | < 250 | < 250 |
| NC(=O)CNC[C@H]1C[C@H](c2c(-c3ccc(F)cc3)[nH]c3c(F)cc(F)cc32)C1 | < 250 | < 250 |
| C[C@H](O)CNC(=O)[C@H]1C[C@H](c2c(-c3ccc(F)cc3)[nH]c3c(F)cc(F)cc32)C1 | 0.25 | 250 |
| CN1CCN(C(=O)CNC(=O)[C@H]2C[C@H](c3c(-c4ccc(F)cc4)[nH]c4c(F)cc(F)cc43)C2)CC1 | > 1000 | > 1000 |
| O=C(NC(CO)CF)[C@H]1C[C@H](c2c(-c3ccc(F)cc3)[nH]c3c(F)cc(F)cc32)C1 (stereo not given in full) | < 250 | < 250 |
| O=C1CC(NC(=O)[C@H]2C[C@H](c3c(-c4ccc(F)cc4)[nH]c4c(F)cc(F)cc43)C2)CN1 (stereo not given in full) | > 1000 | > 1000 |
| O=C([C@H]1C[C@H](c2c(-c3ccc(F)cc3)[nH]c3c(F)cc(F)cc32)C1)N1CCC[C@@H](O)C1 (mixture of isomers) | 0.25 | < 250 |
| CC(=O)NC1CCCN(C(=O)[C@H]2C[C@H](c3c(-c4ccc(F)cc4)[nH]c4c(F)cc(F)cc43)C2)C1 (stereo not given in full) | > 1000 | > 1000 |
| CC(CO)N1CCN(C(=O)[C@H]2C[C@H](c3c(-c4ccc(F)cc4)[nH]c4c(F)cc(F)cc43)C2)CC1 (stereo not given in full) | > 1000 | > 1000 |
| CC1(C)CN(C(=O)[C@H]2C[C@H](c3c(-c4ccc(F)cc4)[nH]c4c(F)cc(F)cc43)C2)CCC1O (stereo not given in full) | > 1000 | > 1000 |
| O=C(NC[C@H](O)CO)[C@H]1C[C@H](c2c(-c3ccc(F)cc3)[nH]c3c(F)cc(F)cc32)C1 | > 1000 | 250 |
| O=C([C@H]1C[C@H](c2c(-c3ccc(F)cc3)[nH]c3c(F)cc(F)cc32)C1)N1CCO[C@H](CO)C1 | > 1000 | > 1000 |
| CC(C)C(CO)NC(=O)[C@H]1C[C@H](c2c(-c3ccc(F)cc3)[nH]c3c(F)cc(F)cc32)C1 (stereo not given in full) | > 1000 | 250 |
| COC1CC1NC(=O)[C@H]1C[C@H](c2c(-c3ccc(F)cc3)[nH]c3c(F)cc(F)cc32)C1 (stereo not given in full) | > 1000 | > 1000 |
| Cn1ccc(CNC(=O)[C@H]2C[C@H](c3c(-c4ccc(F)cc4)[nH]c4c(F)cc(F)cc43)C2)n1 | 0.25 | < 250 |
| O=C([C@H]1C[C@H](c2c(-c3ccc(F)cc3)[nH]c3c(F)cc(F)cc32)C1)N1CCOC[C@@H]1CO | 0.25 | < 250 |
| O=C(NCC1CC(F)(F)C1)[C@H]1C[C@H](c2c(-c3ccc(F)cc3)[nH]c3c(F)cc(F)cc32)C1 | > 1000 | > 1000 |
| Cc1cc(CNC(=O)[C@H]2C[C@H](c3c(-c4ccc(F)cc4)[nH]c4c(F)cc(F)cc43)C2)nn1C | > 1000 | 250 |
| O=C(NC1(CO)CCC1)[C@H]1C[C@H](c2c(-c3ccc(F)cc3)[nH]c3c(F)cc(F)cc32)C1 | < 250 | < 250 |
| O=C([C@H]1C[C@H](c2c(-c3ccc(F)cc3)[nH]c3c(F)cc(F)cc32)C1)N1CCCC[C@H]1CO | > 1000 | 250 |
| CN1CC(CNC(=O)[C@H]2C[C@H](c3c(-c4ccc(F)cc4)[nH]c4c(F)cc(F)cc43)C2)CC1=O (stereo not given in full) | > 1000 | > 1000 |
| CN(C)C(=O)CN(C)C(=O)[C@H]1C[C@H](c2c(-c3ccc(F)cc3)[nH]c3c(F)cc(F)cc32)C1 | 0.25 | > 1000 |
| O=C([C@H]1C[C@H](c2c(-c3ccc(F)cc3)[nH]c3c(F)cc(F)cc32)C1)N1CCCC(O)C1 (stereo not given in full) | > 1000 | 250 |
| NC(=O)[C@H]1C[C@H](c2c(-c3ccc(F)cc3)[nH]c3c(F)cc(F)cc32)C1 | 0.25 | < 250 |
| O=C(CNC(=O)[C@H]1C[C@H](c2c(-c3ccc(F)cc3)[nH]c3c(F)cc(F)cc32)C1)NC1CC1 | > 1000 | > 1000 |
| O=C(N[C@H]1C[C@H](O)C1)[C@H]1C[C@H](c2c(-c3ccc(F)cc3)[nH]c3c(F)cc(F)cc32)C1 | > 1000 | 250 |
| O=C([C@H]1C[C@H](c2c(-c3ccc(F)cc3)[nH]c3c(F)cc(F)cc32)C1)N1C[C@@H](O)[C@H](O)C1 | > 1000 | 250 |

| Structure (SMILES) | IC50 (Apolipoprotein L1) [nM] | IC50 [1] [nM] |
| --- | --- | --- |
| O=C([C@H]1C[C@H](c2c(-c3ccc(F)cc3)[nH]c3c(F)cc(F)cc32)C1)N1C2CCC(C2)C1CO (stereo not given in full) | > 1000 | > 1000 |
| CC(C)N1CCN(C(=O)[C@H]2C[C@H](c3c(-c4ccc(F)cc4)[nH]c4c(F)cc(F)cc43)C2)CC1=O | > 1000 | > 1000 |
| O=C([C@H]1C[C@H](c2c(-c3ccc(F)cc3)[nH]c3c(F)cc(F)cc32)C1)N1C[C@@H](CO)OCC12CC2 | > 1000 | > 1000 |
| NC(=O)CC1CC(c2c(-c3ccc(F)cc3)[nH]c3c(F)cc(F)cc23)C1 (stereo not given) | < 250 | < 250 |
| COCCNC(=O)[C@H]1C[C@H](c2c(-c3ccc(F)cc3)[nH]c3c(F)cc(F)cc32)C1 | > 1000 | 250 |
| NC(=O)[C@H](CO)NC(=O)[C@H]1C[C@H](c2c(-c3ccc(F)cc3)[nH]c3c(F)cc(F)cc32)C1 | 0.25 | 250 |
| O=C(N[C@H](CO)C(F)(F)F)[C@H]1C[C@H](c2c(-c3ccc(F)cc3)[nH]c3c(F)cc(F)cc32)C1 | 0.25 | < 250 |
| O=C(NCC(F)(F)F)[C@H]1C[C@H](c2c(-c3ccc(F)cc3)[nH]c3c(F)cc(F)cc32)C1 | 0.25 | > 1000 |
| COC[C@@H]1CCN1C(=O)[C@H]1C[C@H](c2c(-c3ccc(F)cc3)[nH]c3c(F)cc(F)cc32)C1 | > 1000 | < 250 |
| CC(C)(O)C(O)CNC(=O)[C@H]1C[C@H](c2c(-c3ccc(F)cc3)[nH]c3c(F)cc(F)cc32)C1 (stereo not given in full) | > 1000 | 250 |
| O=C([C@H]1C[C@H](c2c(-c3ccc(F)cc3)[nH]c3c(F)cc(F)cc32)C1)N1CCOC(O)C1 (stereo not given in full) | 0.25 | < 250 |
| CCC1(O)CN(C(=O)[C@H]2C[C@H](c3c(-c4ccc(F)cc4)[nH]c4c(F)cc(F)cc43)C2)C1 | > 1000 | > 1000 |
| CO[C@H]1CCN(C(=O)[C@H]2C[C@H](c3c(-c4ccc(F)cc4)[nH]c4c(F)cc(F)cc43)C2)C1 | > 1000 | > 1000 |
| O=C([C@H]1C[C@H](c2c(-c3ccc(F)cc3)[nH]c3c(F)cc(F)cc32)C1)N1CCCC[C@@H]1CO | > 1000 | 250 |
| O=C([C@H]1C[C@H](c2c(-c3ccc(F)cc3)[nH]c3c(F)cc(F)cc32)C1)N(CCOCCO)C1CCC1 | > 1000 | > 1000 |
| Cn1cncc1CNC(=O)[C@H]1C[C@H](c2c(-c3ccc(F)cc3)[nH]c3c(F)cc(F)cc32)C1 | > 1000 | 250 |
| O=C([C@H]1C[C@H](c2c(-c3ccc(F)cc3)[nH]c3c(F)cc(F)cc32)C1)N1CCC2(COC2)C1 | > 1000 | > 1000 |
| O=C(NCC1(CO)COC1)[C@H]1C[C@H](c2c(-c3ccc(F)cc3)[nH]c3c(F)cc(F)cc32)C1 | > 1000 | > 1000 |
| CC(NC(=O)[C@H]1C[C@H](c2c(-c3ccc(F)cc3)[nH]c3c(F)cc(F)cc32)C1)c1ccn(C)n1 (stereo not given in full) | 0.25 | < 250 |
| O=C(N[C@@H](CO)C(F)(F)F)[C@H]1C[C@H](c2c(-c3ccc(F)cc3)[nH]c3c(F)cc(F)cc32)C1 | 0.25 | < 250 |
| O=C(NC1(CO)CC(F)(F)C1)[C@H]1C[C@H](c2c(-c3ccc(F)cc3)[nH]c3c(F)cc(F)cc32)C1 | 0.25 | < 250 |
| CC[C@@H](CO)NC(=O)[C@H]1C[C@H](c2c(-c3ccc(F)cc3)[nH]c3c(F)cc(F)cc32)C1 | 0.25 | < 250 |
| O=C([C@H]1C[C@H](c2c(-c3ccc(F)cc3)[nH]c3c(F)cc(F)cc32)C1)N1CCC[C@H]1CO | > 1000 | 250 |
| O=C(N[C@@H]1CCC[C@@H]1O)[C@H]1C[C@H](c2c(-c3ccc(F)cc3)[nH]c3c(F)cc(F)cc32)C1 | > 1000 | 250 |
| CN(CC(C)(C)O)C(=O)[C@H]1C[C@H](c2c(-c3ccc(F)cc3)[nH]c3c(F)cc(F)cc32)C1 | > 1000 | > 1000 |
| CC1(C)CN(C(=O)[C@H]2C[C@H](c3c(-c4ccc(F)cc4)[nH]c4c(F)cc(F)cc43)C2)CC1O (stereo not given in full) | > 1000 | > 1000 |
| CN(C(=O)[C@H]1C[C@H](c2c(-c3ccc(F)cc3)[nH]c3c(F)cc(F)cc32)C1)C1(CO)CC1 | 0.25 | 250 |

Source: ChEMBL document CHEMBL5052856, “Inhibitors of apol1 and methods of using same” (2021)
